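Method: 48-hour compound exposure of cells in 96-well plates, five concentrations, linear interpolation of endpoints. The concentration for 50% growth inhibition is given as GI50. TGI: concentration producing complete growth inhibition.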
Assays:
Assay in all cases: growth of human tumour cells (NCI), 48 h
SN12C renal = system: SN12C renal
LOX IMVI melanoma = system: LOX IMVI melanoma
MALME-3M melanoma = system: MALME-3M melanoma
HOP-62 NSCLC = system: HOP-62 NSCLC
SF-295 CNS = system: SF-295 CNS
T-47D breast = system: T-47D breast
SK-MEL-5 melanoma = system: SK-MEL-5 melanoma
OVCAR-5 ovarian = system: OVCAR-5 ovarian
NCI-H522 lung = system: NCI-H522 lung
HCC-2998 colon = system: HCC-2998 colon
CAKI-1 renal = system: CAKI-1 renal
SF-539 CNS = system: SF-539 CNS
EKVX NSCLC = system: EKVX NSCLC
NCI/ADR-RES ovarian = system: NCI/ADR-RES ovarian
HS 578T breast = system: HS 578T breast
SW-620 colon = system: SW-620 colon
RPMI-8226 leukemia = system: RPMI-8226 leukemia
MOLT-4 leukemia = system: MOLT-4 leukemia
HL-60(TB) leukemia = system: HL-60(TB) leukemia
MDA-MB-231 breast = system: MDA-MB-231 breast
CCRF-CEM leukemia = system: CCRF-CEM leukemia
K-562 leukemia = system: K-562 leukemia
MDA-MB-468 breast = system: MDA-MB-468 breast
NCI-H226 lung = system: NCI-H226 lung
TK-10 renal = system: TK-10 renal
M14 melanoma = system: M14 melanoma
DU-145 prostate = system: DU-145 prostate
OVCAR-8 ovarian = system: OVCAR-8 ovarian
IGROV1 ovarian = system: IGROV1 ovarian
RXF 393 renal = system: RXF 393 renal
NCI-H23 lung = system: NCI-H23 lung
KM12 colon = system: KM12 colon
HCT-15 colon = system: HCT-15 colon
SR leukemia = system: SR leukemia
MCF7 breast = system: MCF7 breast
ACHN renal = system: ACHN renal
SF-268 CNS = system: SF-268 CNS
SK-MEL-2 melanoma = system: SK-MEL-2 melanoma
HOP-92 NSCLC = system: HOP-92 NSCLC
786-0 renal = system: 786-0 renal
A549 NSCLC = system: A549 NSCLC
U251 CNS = system: U251 CNS
A498 renal = system: A498 renal
OVCAR-4 ovarian = system: OVCAR-4 ovarian
UO-31 renal = system: UO-31 renal
SNB-75 CNS = system: SNB-75 CNS
MDA-MB-435 = system: MDA-MB-435
SK-OV-3 ovarian = system: SK-OV-3 ovarian
HT29 colon = system: HT29 colon
UACC-257 melanoma = system: UACC-257 melanoma
PC-3 prostate = system: PC-3 prostate
BT-549 breast = system: BT-549 breast
OVCAR-3 ovarian = system: OVCAR-3 ovarian
SNB-19 CNS = system: SNB-19 CNS
SK-MEL-28 melanoma = system: SK-MEL-28 melanoma
COLO 205 colon = system: COLO 205 colon
UACC-62 melanoma = system: UACC-62 melanoma
NCI-H460 lung = system: NCI-H460 lung

CC1=C2C(=C[C@@](C)(COP(=O)(Oc3ccccc3)Oc3ccccc3)[C@@H]2O)C(=O)[C@@](C)(O)C12CC2
GI50 (SN12C renal): 521 nM | TGI (SN12C renal): 1550 nM | GI50 (LOX IMVI melanoma): 218 nM | TGI (LOX IMVI melanoma): 703 nM | GI50 (MALME-3M melanoma): 382 nM | TGI (MALME-3M melanoma): 1000 nM | GI50 (HOP-62 NSCLC): 408 nM | TGI (HOP-62 NSCLC): 1280 nM | GI50 (SF-295 CNS): 294 nM | TGI (SF-295 CNS): 1230 nM | GI50 (T-47D breast): 946 nM | TGI (T-47D breast): 5190 nM | GI50 (SK-MEL-5 melanoma): 219 nM | TGI (SK-MEL-5 melanoma): 609 nM | GI50 (OVCAR-5 ovarian): 359 nM | TGI (OVCAR-5 ovarian): 1340 nM | GI50 (NCI-H522 lung): 223 nM | TGI (NCI-H522 lung): 655 nM | GI50 (HCC-2998 colon): 216 nM | TGI (HCC-2998 colon): 639 nM | GI50 (CAKI-1 renal): 289 nM | TGI (CAKI-1 renal): 2170 nM | GI50 (SF-539 CNS): 327 nM | TGI (SF-539 CNS): 886 nM | GI50 (EKVX NSCLC): 641 nM | TGI (EKVX NSCLC): 1800 nM | GI50 (NCI/ADR-RES ovarian): 236 nM | TGI (NCI/ADR-RES ovarian): 778 nM | GI50 (HS 578T breast): 1010 nM | TGI (HS 578T breast): 4460 nM | GI50 (SW-620 colon): 1700 nM | TGI (SW-620 colon): 18300 nM | GI50 (RPMI-8226 leukemia): 4560 nM | TGI (RPMI-8226 leukemia): 38900 nM | GI50 (MOLT-4 leukemia): 439 nM | TGI (MOLT-4 leukemia): 14600 nM | GI50 (HL-60(TB) leukemia): 213 nM | TGI (HL-60(TB) leukemia): 1280 nM | GI50 (MDA-MB-231 breast): 351 nM | TGI (MDA-MB-231 breast): 1030 nM | GI50 (CCRF-CEM leukemia): 1880 nM | TGI (CCRF-CEM leukemia): > 39800 nM | GI50 (K-562 leukemia): 1560 nM | TGI (K-562 leukemia): > 69500 nM | GI50 (MDA-MB-468 breast): 147 nM | TGI (MDA-MB-468 breast): 503 nM | GI50 (NCI-H226 lung): 723 nM | TGI (NCI-H226 lung): 3840 nM | GI50 (TK-10 renal): 854 nM | TGI (TK-10 renal): 3090 nM | GI50 (M14 melanoma): 551 nM | TGI (M14 melanoma): 1310 nM | GI50 (DU-145 prostate): 332 nM | TGI (DU-145 prostate): 1340 nM | GI50 (OVCAR-8 ovarian): 286 nM | TGI (OVCAR-8 ovarian): 1090 nM | GI50 (IGROV1 ovarian): 399 nM | TGI (IGROV1 ovarian): 1240 nM | GI50 (RXF 393 renal): 188 nM | TGI (RXF 393 renal): 493 nM | GI50 (NCI-H23 lung): 158 nM | TGI (NCI-H23 lung): 384 nM | GI50 (KM12 colon): 628 nM | TGI (KM12 colon): 5820 nM | GI50 (HCT-15 colon): 208 nM | TGI (HCT-15 colon): 875 nM | GI50 (SR leukemia): 402 nM | TGI (SR leukemia): 25100 nM | GI50 (MCF7 breast): 141 nM | TGI (MCF7 breast): 4690 nM | GI50 (ACHN renal): 232 nM | TGI (ACHN renal): 686 nM | GI50 (SF-268 CNS): 350 nM | TGI (SF-268 CNS): 1500 nM | GI50 (SK-MEL-2 melanoma): 246 nM | TGI (SK-MEL-2 melanoma): 596 nM | GI50 (HOP-92 NSCLC): 574 nM | TGI (HOP-92 NSCLC): 1580 nM | GI50 (786-0 renal): 284 nM | TGI (786-0 renal): 857 nM | GI50 (A549 NSCLC): 781 nM | TGI (A549 NSCLC): 3290 nM | GI50 (U251 CNS): 249 nM | TGI (U251 CNS): 1360 nM | GI50 (A498 renal): 1150 nM | TGI (A498 renal): 4090 nM | GI50 (OVCAR-4 ovarian): 355 nM | TGI (OVCAR-4 ovarian): 1470 nM | GI50 (UO-31 renal): 460 nM | TGI (UO-31 renal): 1270 nM | GI50 (SNB-75 CNS): 477 nM | TGI (SNB-75 CNS): 1270 nM | GI50 (MDA-MB-435): 637 nM | TGI (MDA-MB-435): 2060 nM | GI50 (SK-OV-3 ovarian): 357 nM | TGI (SK-OV-3 ovarian): 1310 nM | GI50 (HT29 colon): 201 nM | TGI (HT29 colon): 705 nM | GI50 (UACC-257 melanoma): 792 nM | TGI (UACC-257 melanoma): 2310 nM | GI50 (PC-3 prostate): 397 nM | TGI (PC-3 prostate): 2340 nM | GI50 (BT-549 breast): 211 nM | TGI (BT-549 breast): 614 nM | GI50 (OVCAR-3 ovarian): 286 nM | TGI (OVCAR-3 ovarian): 1080 nM | GI50 (SNB-19 CNS): 630 nM | TGI (SNB-19 CNS): 4930 nM | GI50 (SK-MEL-28 melanoma): 681 nM | TGI (SK-MEL-28 melanoma): 1690 nM | GI50 (COLO 205 colon): 530 nM | TGI (COLO 205 colon): 1200 nM | GI50 (UACC-62 melanoma): 312 nM | TGI (UACC-62 melanoma): 804 nM | GI50 (NCI-H460 lung): 234 nM | TGI (NCI-H460 lung): 744 nM
